US20250136722A1, “CYTOTOXICITY TARGETING CHIMERAS” (GLAXOSMITHKLINE INTELLECTUAL PROPERTY DEVELOPMENT LIMITED, priority 2021, published 2025)
Several values for one entry are separate records, joined by “and”; a condition that tells them apart may be missing. Identical values can stand only once.

Columns and labels:
[1] = target: T1, CHOK1 cells engineered to overexpress human CCR2 (Homo sapiens, UniProt P41597); assay: Antibody dependent cellular cytotoxicity (ADCC) reporter assay (Example 199); format: cell-based; settings: with anti-cotinine antibody SEQ ID NO: 11/12; CHOK1-human CCR2 target cells, Jurkat FcγRIIIa NFAT-luciferase reporter cells; 12-18 hours; read-out: ADCC Reporter Assay pEC50 (converted)
T1 construct: expressed in transfected cells; host or cells: CHOK1 cells
Procedure, shortened: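 Potency is reported as pEC50 from a nonlinear fit, averaged over runs, using luciferase signal divided by that of compound-free wells. The readout comes from NFAT-luciferase Jurkat cells expressing FcγRIIIa, mixed for 12–18 h with human CCR2-overexpressing CHOK1 cells, 1 pM–10 μM ARM compound and 0.01–200 μg/mL Fc-enhanced anti-cotinine IgG1.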

[2] = target: Anti-cotinine antibody (SEQ ID NO: 11 / SEQ ID NO: 12, rabbit variable region with human IgG1 Fc domain); assay: Binding of anti-cotinine antibody to ARM compounds by SPR, Biacore T200, 37° C. (Example 202); settings: pH 7.4, rabbit variable region/human IgG1 Fc antibody captured on protein A
Procedure: Anti-cotinine antibodies having a heavy chain sequence of SEQ ID NO: 11 and a light chain sequence of SEQ ID NO: 12 (rabbit variable region with human IgG1 Fc domain containing a DE mutation (S239D/1332E)) were captured on one or more flow cells of a protein A sensor chip (Cytiva) using a Biacore T200 while reserving flow cell 1 as a reference. Following capture, a 3000 second wait step was included to reduce drift during compound analysis. ARM compounds of Formula (I) were then injected at 100 μL/min with 200 and 2000 second association and dissociation times. The entire experiment was run at 37° C. with running buffer containing 10 mM HEPES pH 7.4, 150 mM NaCl, 0.005% P20 and 1% DMSO. ARM compounds of Formula (I) were titrated with a top concentration of 200 nM using a 3-fold 5-point dilution series and a corresponding 5-injection buffer cycle was run for blank subtraction. Data were double referenced by subtracting the response of the reference flow cell from that of the antibody-containing flow cell and subsequently subtracting the referenced blank sensorgrams. Following compound analysis, the surface was regenerated using a 30 second injection of pH 1.5 glycine at a flow rate of 30 μL/min after which antibody was re-captured. The experiment was run using Biacore T200 control software and evaluated using Biacore T200 Evaluation software. Curves were fit with a 1:1 kinetic binding model to obtain kon(1/Ms), koff(1/s), Kd (M) determined as koff/kon, and residence time determined as 1/koff. (s).
Anti-cotinine antibody was tested for binding to ARMs compounds of Formula (I) of the invention in the above assay in or more experimental runs and the results are shown in Table 5 below. Affinity is reported as a pKd value. The pKd value is the negative log of the Kd value, wherein the Kd value is the dissociation constant measured in molar (M) as noted above. For compounds tested in more than one experimental run, the pKd value is reported as an average.

[3] = target: human alpha1 nicotinic acetylcholine (nACh) receptor (Homo sapiens, UniProt P02708+Q07001); assay: Nicotinic acetylcholine receptor antagonism assay, IONFlux automated patch clamp (Example 203); format: cell-based; settings: for Emax at 100 µM: maximum percentage antagonism at maximum concentration tested 100 μM; for Emax at 100 µM / Emax at 10 µM: read-out: Maximum Response (%); for IC50: nAChR antagonism, ACh stimulated, patch clamp; for Emax at 10 µM: maximum percentage antagonism at maximum concentration tested 10 μM
Procedure: Cells expressing human alpha1 nicotinic acetylcholine (nACh) receptor (nAChR) were washed and dissociated using Trypsin containing buffer. Cells were then washed and seeded at a density of 3-5 million cells/mL and allowed to grow for 3 days. Then, 60-80 μL of cells were added to plates and incubated with dose response of an ARM compound of Formula (I) with a top concentration of either 10 μM or 100 μM. The receptor was then stimulated via addition of acetylcholine (ACh) and activation of the receptor was monitored via the IONFlux automated patch clamp system. IonFlux Data Analyzer software was utilized to perform leak subtraction and measure (min) peak current amplitude.
Data processing: (1) Current values recorded for vehicle only applications in individual traps/patterns were subtracted from corresponding current amplitude values for control, test article and control+test article. (2) Control response was calculated as % of the average response of the 3rd out of total 3 ACh (10 mM) applications alone. In rare situations, if the 3rd ACh response was obscured due to technical artifacts, the 2nd and/or 1 st ACh (10 mM) application was considered as control. The peak current amplitude generated in the presence of each test article concentration was then used to calculate the % inhibition as compared to control response (10 mM ACh alone). These estimates were further corrected for vehicle response and run down corrected by normalizing with time matched control responses (10 mM ACh alone). The corrected percentages were then fit with a non-linear function in GraphPad Prism 6 (or later versions) to determine the […].
Exclusion criteria: (i) any n's with poor recording quality, (ii) control current amplitude <500 pA or (iii) significant outliers, as determined by the Grubbs' test.
ARMs compounds of Formula (I) of the invention were tested for antagonism of the nAChR in the above assay in […] experimental runs and the results are shown in Table 7 below. Antagonistic activity of the compounds of Formula (I) of the invention is reported as an IC50 value (half maximal inhibitory concentration) and the maximum percentage antagonism observed at the highest concentration of compound of Formula (I) tested, as indicated in Table 7. For compounds tested in more than one experimental run, the IC50 value is reported as an average.

Chain of human alpha1 nicotinic acetylcholine (nACh) receptor (P02708 21-457): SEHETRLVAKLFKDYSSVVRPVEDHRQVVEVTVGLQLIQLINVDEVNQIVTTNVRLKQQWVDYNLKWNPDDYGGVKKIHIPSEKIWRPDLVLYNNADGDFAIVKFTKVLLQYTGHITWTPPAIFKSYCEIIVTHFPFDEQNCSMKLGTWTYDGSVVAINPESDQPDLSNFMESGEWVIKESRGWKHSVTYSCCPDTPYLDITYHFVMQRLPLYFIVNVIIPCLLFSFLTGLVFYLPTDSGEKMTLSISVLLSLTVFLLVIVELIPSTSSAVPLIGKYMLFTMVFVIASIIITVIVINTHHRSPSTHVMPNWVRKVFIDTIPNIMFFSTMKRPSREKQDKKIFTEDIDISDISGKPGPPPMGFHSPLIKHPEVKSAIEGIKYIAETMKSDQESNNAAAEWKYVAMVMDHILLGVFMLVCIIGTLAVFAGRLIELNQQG
Chain of human alpha1 nicotinic acetylcholine (nACh) receptor (P11230 24-501 partner): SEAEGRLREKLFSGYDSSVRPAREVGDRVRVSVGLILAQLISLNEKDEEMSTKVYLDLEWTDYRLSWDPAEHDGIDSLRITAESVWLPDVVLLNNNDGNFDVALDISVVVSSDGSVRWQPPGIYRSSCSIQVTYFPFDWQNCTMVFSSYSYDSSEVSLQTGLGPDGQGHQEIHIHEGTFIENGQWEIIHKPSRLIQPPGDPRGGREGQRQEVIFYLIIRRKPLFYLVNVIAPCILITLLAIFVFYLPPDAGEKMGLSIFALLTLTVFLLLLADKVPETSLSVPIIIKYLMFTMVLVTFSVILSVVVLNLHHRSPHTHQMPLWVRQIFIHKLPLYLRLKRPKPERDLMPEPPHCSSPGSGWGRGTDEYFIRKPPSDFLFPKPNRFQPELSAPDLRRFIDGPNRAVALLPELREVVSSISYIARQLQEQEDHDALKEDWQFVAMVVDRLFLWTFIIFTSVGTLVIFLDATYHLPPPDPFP
Chain of human alpha1 nicotinic acetylcholine (nACh) receptor (Q07001 22-517): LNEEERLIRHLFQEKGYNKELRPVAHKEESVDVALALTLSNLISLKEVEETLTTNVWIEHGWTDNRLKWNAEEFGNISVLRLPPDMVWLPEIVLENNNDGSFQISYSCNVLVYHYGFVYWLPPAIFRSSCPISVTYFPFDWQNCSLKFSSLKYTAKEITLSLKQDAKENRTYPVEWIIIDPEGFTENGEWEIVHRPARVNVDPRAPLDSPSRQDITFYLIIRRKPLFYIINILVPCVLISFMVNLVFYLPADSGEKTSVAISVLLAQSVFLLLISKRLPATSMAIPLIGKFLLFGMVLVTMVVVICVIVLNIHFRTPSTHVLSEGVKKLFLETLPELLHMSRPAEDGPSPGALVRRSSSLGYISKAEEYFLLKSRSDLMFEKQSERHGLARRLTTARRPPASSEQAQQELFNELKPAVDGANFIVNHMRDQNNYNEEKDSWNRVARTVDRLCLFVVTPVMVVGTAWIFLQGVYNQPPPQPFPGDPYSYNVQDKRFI

Row | pKd of Antibody for ARM Compound of Formula (I) [2] | Emax at 100 µM [3] | IC50 [3] | Emax at 10 µM [3] | SMILES | EC50 [1]
1 | 9.4775 |  |  |  | CN1C(=O)C[C@H](C(=O)NCCO[C@H]2CC[C@@H](OCCCC(=O)N[C@H]3CC[C@H](C(=O)N[C@@H]4C[C@H](NC(C)(C)C)CC[C@@H]4N4CC[C@H](Nc5ncnc6ccc(C(F)(F)F)cc56)C4=O)CC3)CC2)[C@H]1c1cccnc1 [Example 2] | 5.06 nM
2 | 9.2795 |  |  |  | CC(C)N(C)[C@@H]1CC[C@H](N2CC[C@H](Nc3ncnc4ccc(C(F)(F)F)cc34)C2=O)[C@H](NC(=O)[C@H]2CC[C@@H](NC(=O)CCCO[C@H]3CC[C@@H](OCCNC(=O)[C@H]4CC(=O)N(C)[C@@H]4c4cccnc4)CC3)CC2)C1 [Example 3] | 0.155 nM and 0.283 nM
3 |  | 73.1% | 47200 nM |  | CC(C)N(C)[C@@H]1CC[C@H](N2CC[C@H](Nc3ncnc4ccc(C(F)(F)F)cc34)C2=O)[C@H](NC(=O)[C@H]2C[C@H](NC(=O)CCCO[C@H]3CC[C@H](OCCNC(=O)[C@H]4CC(=O)N(C)[C@@H]4c4cccnc4)CC3)C2)C1 [Example 8] | 0.631 nM
4 |  | 53.9% | 82000 nM |  | CC(C)N(C)[C@@H]1CC[C@H](N2CC[C@H](Nc3ncnc4ccc(C(F)(F)F)cc34)C2=O)[C@H](NC(=O)[C@H]2C[C@@H](NC(=O)CCCO[C@H]3CC[C@H](OCCNC(=O)[C@H]4CC(=O)N(C)[C@@H]4c4cccnc4)CC3)C2)C1 [Example 9] | 25.1 nM
5 | 10.511 |  |  |  | CC(C)N(C)[C@@H]1CC[C@H](N2CC[C@H](Nc3ncnc4ccc(C(F)(F)F)cc34)C2=O)[C@H](NC(=O)[C@H]2CC[C@H](NC(=O)CCCO[C@H]3CC[C@H](OCCNC(=O)[C@H]4CC(=O)N(C5CC5)[C@@H]4c4cccnc4)CC3)CC2)C1 [Example 13] | 
6 |  | 53.8% | 93700 nM |  | CC(C)N(C)[C@@H]1CC[C@H](N2CC[C@H](Nc3ncnc4ccc(C(F)(F)F)cc34)C2=O)[C@H](NC(=O)[C@H]2C[C@H](NC(=O)CCOCCOCCOCCNC(=O)[C@H]3CC(=O)N(C)[C@@H]3c3cccnc3)C2)C1 [Example 27] | 7.28 nM
7 | 9.558 |  |  |  | CC(C)N(C)[C@@H]1CC[C@H](N2CC[C@H](Nc3ncnc4ccc(C(F)(F)F)cc34)C2=O)[C@H](NC(=O)[C@H]2CC[C@@H](NC(=O)CCCOC[C@H]3CC[C@@H](COCCNC(=O)[C@H]4CC(=O)N(C)[C@@H]4c4cccnc4)CC3)CC2)C1 [Example 61] | 
8 |  |  | 4660 nM | 67.1% | CC(C)N(C)[C@@H]1CC[C@H](N2CC[C@H](Nc3ncnc4ccc(C(F)(F)F)cc34)C2=O)[C@H](NC(=O)c2ccc(C3CCN(CCOCCOCCNC(=O)[C@H]4CC(=O)N(C)[C@@H]4c4cccnc4)CC3)cn2)C1 [Example 94] | 10 nM
9 |  |  | > 10000 nM | 16.8% | CC(C)N(C)[C@@H]1CC[C@H](N2CC[C@H](Nc3ncnc4ccc(C(F)(F)F)cc34)C2=O)[C@H](NC(=O)c2ccc(N3CCC(C(=O)NCCOCCOCCNC(=O)[C@H]4CC(=O)N(C)[C@@H]4c4cccnc4)CC3)cc2)C1 [Example 130, 1-(4-(((1R,2S,5R)-5-(Isopropyl(methyl)amino)-2-((S)-2-oxo-3-((6-(trifluoromethyl)quinazolin-4-yl)amino)pyrrolidin-1-yl)cyclohexyl)carbamoyl)phenyl)-N-(2-(2-(2-((2S,3S)-1-methyl-5-oxo-2-(pyridin-3-yl)pyrrolidine-3-carboxamido)ethoxy)ethoxy)ethyl)piperidine-4-carboxamide] | 3.98 nM
10 |  |  | > 10000 nM | 18.2% | CC(C)N(C)[C@@H]1CC[C@H](N2CC[C@H](Nc3ncnc4ccc(C(F)(F)F)cc34)C2=O)[C@H](NC(=O)[C@H]2CC[C@H](c3ccc(C(=O)NCCOCCOCCNC(=O)[C@H]4CC(=O)N(C)[C@@H]4c4cccnc4)cc3)CC2)C1 [Example 140] | 3.16 nM
11 |  |  | > 10000 nM | 13.1% | CC(C)N(C)[C@@H]1CC[C@H](N2CC[C@H](Nc3ncnc4ccc(C(F)(F)F)cc34)C2=O)[C@H](NC(=O)C2CCN(c3ccc(C(=O)NCCOCCOCCNC(=O)[C@H]4CC(=O)N(C)[C@@H]4c4cccnc4)cc3)CC2)C1 [Example 142] | 0.501 nM
12 |  | 53% | 74300 nM |  | CC(C)N(C)[C@@H]1CC[C@H](N2CC[C@H](Nc3ncnc4ccc(C(F)(F)F)cc34)C2=O)[C@H](NC(=O)CCOCCOCCO[C@H]2CC[C@H](OCCNC(=O)[C@H]3CC(=O)N(C)[C@@H]3c3cccnc3)CC2)C1 [Example 192, (2S,3S)-N-(2-(((1R,4S)-4-(2-(2-(3-(((1R,2S,5R)-5-(Isopropyl(methyl)amino)-2-((S)-2-oxo-3-((6-(trifluoromethyl)quinazolin-4-yl)amino)pyrrolidin-1-yl)cyclohexyl)amino)-3-oxopropoxy)ethoxy)ethoxy)cyclohexyl)oxy)ethyl)-1-methyl-5-oxo-2-(pyridin-3-yl)pyrrolidine-3-carboxamide] | 
13 |  |  | 6390 nM | 69.2% | CC(C)N(C)[C@@H]1CC[C@H](N2CC[C@H](Nc3ncnc4ccc(C(F)(F)F)cc34)C2=O)[C@H](NC(=O)CCOCCN2CCC3(CCC(C(=O)NCCNC(=O)[C@H]4CC(=O)N(C)[C@@H]4c4cccnc4)CC3)CC2)C1 [compound 184] | 0.398 nM

Row | SMILES | pKd of Antibody for ARM Compound of Formula (I) [2] | Emax at 100 µM [3] | IC50 [3] | Emax at 10 µM [3] | EC50 [1]
14 | CC(C)N(C)[C@@H]1CC[C@H](N2CC[C@H](Nc3ncnc4ccc(C(F)(F)F)cc34)C2=O)[C@H](NC(=O)[C@H]2CC[C@@H](NC(=O)CCOCCCNC(=O)CCCNC(=O)[C@H]3CC(=O)N(C)[C@@H]3c3cccnc3)CC2)C1 [Example 17, (2S,3S)-N-(4-((3-(3-(((1S,4s)-4-(((1R,2S,5R)-5-(Isopropyl(methyl)amino)-2-((S)-2-oxo-3-((6-(trifluoromethyl)quinazolin-4-yl)amino)pyrrolidin-1-yl)cyclohexyl)carbamoyl)cyclohexyl)amino)-3-oxopropoxy)propyl)amino)-4-oxobutyl)-1-methyl-5-oxo-2-(pyridin-3-yl)pyrrolidine-3-carboxamide] |  | 55.1% | ≥ 100000 nM |  | 0.338 nM and 0.656 nM
15 | CC(C)N(C)[C@@H]1CC[C@H](N2CC[C@H](Nc3ncnc4ccc(C(F)(F)F)cc34)C2=O)[C@H](NC(=O)[C@H]2C[C@@H](NC(=O)CCOCCNC(=O)CCOCCNC(=O)[C@H]3CC(=O)N(C)[C@@H]3c3cccnc3)C2)C1 [Example 44, (2S,3S)-N-(2-(3-((2-(3-(((1S,3s)-3-(((1R,2S,5R)-5-(Isopropyl(methyl)amino)-2-((S)-2-oxo-3-((6-(trifluoromethyl)quinazolin-4-yl)amino)pyrrolidin-1-yl)cyclohexyl)carbamoyl)cyclobutyl)amino)-3-oxopropoxy)ethyl)amino)-3-oxopropoxy)ethyl)-1-methyl-5-oxo-2-(pyridin-3-yl)pyrrolidine-3-carboxamide] |  | 51.5% | ≥ 100000 nM |  | 0.897 nM
